From US9920057B2, “Substituted pyrazino[1′,2′:1 ,6]pyrido[3,4-b]indoles as phosphodiesterase type 5 inhibitors” (Chongqing University of Arts and Sciences, priority 2015, dated 2018)
“And” between values parts separate entries of the source, which are not always exact repeats. Equal entries are not always repeated. Where two headings read alike, the source gives them in different places.

Assays:
PDE5A = target: T1, PDE5A (Homo sapiens, UniProt O76074); assay: Inhibition against PDE5 (Homogenous Time Resolve Fluoresce); assay type: biochemical; conditions: HTF
T1 construct: purchased SIGMA-ALDRICH E904
Protocol: Method: IC50 of an inhibition effect on PDE5A (E904, SIGMA-ALDRICH) of test compounds was tested by using Sildenafil (S1431, selleck) as a positive control sample and the method of Homogenous Time Resolve Fluoresce, HTF (Cat. No. 62GM2PEB, Cisbio.)

[1] = Study on pharmacokinetics in rats, oral administration; assay type: in vivo, SD rat; conditions: oral 10.0 mg · kg^−1
Protocol: Sample Preparation Method: One step protein precipitation
Precipitant: ACN, with concentration of Verapamil (5.00 ng·mL-1)
Calibration Curve and QC samples Preparation: 5.00 μL each of the calibration or QC working solution and 45.0 μL of blank plasma were transferred into a 1.5-mL microcentrifuge tube. Final standard curve concentration levels were 1.00, 2.50, 5.00, 10.0, 50.0, 100, 500 and 1000 ng·mL-1. The QC concentration levels were 2.50 or 5.00, 50.0 and 800 ng·mL-1. Dilution QC was 5000 ng·mL-1.
Plasma Samples Preparation: Aliquots of 10.0 μL of real samples, calibration curve samples and QC samples were supplemented with 100 μL of precipitant. After vortexed for 3.00 min and centrifuged at 12000 rpm for 5.00 min, the supernatant 10 μL was injected for LC-MS/MS analysis.
Number of Rats/Group: 3/group
Administration Route: oral administration
Blood Collection Time: 0 min, 15 min, 30 min, 1 h, 2 h, 4 h, 6 h, 8 h, 24 h

IC50 (PDE5A): 566 nM
AUMC0-inf ([1]; Mean of 3 rats): 69719 h · h · ng · mL^−1
AUMC0-t ([1]; Mean of 3 rats): 63864 h · h · ng · mL^−1
Kel ([1]; Mean of 3 rats): 0.193 h⁻¹
MRTPO ([1]; Mean of 3 rats): 4.19 h
half-life ([1]; SD, rat, plasma, po, 10 mg/kg, Mean of 3 rats): 224 min
AUC0-inf ([1]; SD, rat, plasma, po, 10 mg/kg, Mean of 3 rats, read-out: AUC0-inf): 16300 ng·h/mL
AUC0-t ([1]; SD, rat, plasma, po, 10 mg/kg, Mean of 3 rats, read-out: AUC0-t): 16100 ng·h/mL
Cmax ([1]; SD, rat, plasma, po, 10 mg/kg, Mean of 3 rats, read-out: Cmax): 4680 ng/mL
half-life ([1]; SD, rat, plasma, po, 10 mg/kg, individual rats): 291 min
AUC0-inf ([1]; SD, rat, plasma, po, 10 mg/kg, individual rats, read-out: AUC0-inf): 18600 ng·h/mL
AUC0-t ([1]; SD, rat, plasma, po, 10 mg/kg, individual rats, read-out: AUC0-t): 18100 ng·h/mL
Cmax ([1]; SD, rat, plasma, po, 10 mg/kg, individual rats, read-out: Cmax): 4580 ng/mL
Tmax ([1]; SD, rat, plasma, individual rats): 15 min
Cmax ([1]; individual rats): 4288 ng/mL and 5171 ng/mL
Kel ([1]; individual rats): 0.143 h⁻¹ and 0.221 h⁻¹ and 0.216 h⁻¹
MRTPO ([1]; individual rats): 5.35 h and 3.70 h and 3.52 h
t1/2 ([1]; individual rats): 3.14 h and 3.21 h
Structure (SMILES): NN1CC(=O)N2[C@H](c3ccc4c(c3)OCO4)c3[nH]c4ccccc4c3C[C@@H]2C1=O [DDCI02]
AUC0-inf ([1]; individual rats): 15617 ng·h/mL and 14794 ng·h/mL
AUC0-t ([1]; individual rats): 15563 ng·h/mL and 14723 ng·h/mL
AUMC0-inf ([1]; individual rats): 99393 h · h · ng · mL^−1 and 57718 h · h · ng · mL^−1 and 52047 h · h · ng · mL^−1
AUMC0-t ([1]; individual rats): 85428 h · h · ng · mL^−1 and 56156 h · h · ng · mL^−1 and 50008 h · h · ng · mL^−1
